Legend:
[1] = GC-odor threshold values (gas chromatograph with sniff port, panel of trained evaluators); settings: for odour threshold value geometric mean: absolute amount delivered at the sniff port, 5 panelists, identical conditions
Description: As used herein, “odor threshold value” means the lowest concentration of a volatile organic compound in air which can be detected by smell. Generally speaking, it can be said that a compound with a low odor threshold value is more powerful than a compound with a high odor threshold value and thus allows the use of very low concentration in a fragrance composition to achieve an olfactory effect.
According to standard procedures known to the person skilled in the art, threshold values for volatile perfumery compounds are determined on a gas chromatograph equipped with a sniff port by a panel of trained evaluators. The lowest concentration smelled by each panelist is recorded as the individual threshold value expressed in ng (absolute amount of compound delivered at the sniff port).
Under identical conditions the odour threshold value for the individual compounds was measured.

yellow mealworm = settings: J. Agr. Food Chem. 20(1), 1972, 65-69; cited from earlier work
[2] = ratio of GC-odour threshold values

Row | Structure (SMILES) | odour threshold value geometric mean [1] | odour threshold value, times lower compared to Citronellyl Acetate [1, 2] | odour threshold value, times lower compared to Ethyl Citronellyl Carbonate [1, 2] | juvenile hormone activity (yellow mealworm)
1 | COC(=O)OCCC(C)CCC=C(C)C (racemic) [Example 1, 3,7-dimethyloct-6-en-1-yl methyl carbonate] | 16 ng | 15 times | 10 times | juvenile hormone activity
2 | CC(C)=CCCC(C)CCOC(=O)Oc1ccccc1 (stereo not drawn) [3,7-Dimethyloct-6-en-1-yl phenyl carbonate] | – | – | – | juvenile hormone activity
3 | CC(C)=CCCC(C)CCO (stereo not drawn) [Citronellol, 3,7-dimethyloct-6-en-1-ol] | 5.2 ng | – | – | –
4 | CC(=O)OCCC(C)CCC=C(C)C (stereo not drawn) [Citronellyl Acetate, 3,7-dimethyloct-6-en-1-yl acetate] | 241 ng | – | – | –
5 | CCOC(=O)OCCC(C)CCC=C(C)C (stereo not drawn) [Ethyl Citronellyl Carbonate, 3,7-dimethyloct-6-en-1-yl ethyl carbonate] | 158 ng | – | – | juvenile hormone activity

Source: patent publication US11098266B2, “Organic compounds” (Givaudan SA, priority 2017, dated 2021)
